The text below walks through data of ChEMBL document CHEMBL5532694, “PDE-stable 2'3'-cGAMP analogues, containing 5'-S-phosphorothioester linkage, as STING agonists” (RSC Med Chem, 2024).

The target in data set [1] is T1, Stimulator of interferon genes protein (Homo sapiens, UniProt Q86WV6). Kind of data set: Agonist activity at STING in human THP1-Dual KI-hSTING-R232 cells assessed as IRF activation incubated for 24 hrs by QUANTI-Luc reagent based luminescence assay. The format is cell-based.
Data set [2] deals with T1, Stimulator of interferon genes protein. Kind of data set: Displacement of 2'-Fluo-AHC-c-di-GMP from wildtype human STING expressed in Escherichia coli BL21 (DE3) incubated for 5 mins by fluorescence polarization assay.
For data set [3] the target is unchanged. Briefly: Agonist activity at STING in wildtype human THP1-Dual cells assessed as IRF activation incubated for 24 hrs by QUANTI-Luc reagent based luminescence assay. Format: cell-based.
A short description of data set [4]: Stability of compound at 95 degreeC incubated for 5 mins by HPLC analysis. The format is physicochemical.
The nature of data set [5]: Stability of compound assessed as Poxin (unknown origin) mediated compound degradation at 300 uM and measured after 30 mins by HPLC analysis. The format is ADME. The settings on record: 0.5 h.
Data set [6] has as its target T2, Ectonucleotide pyrophosphatase/phosphodiesterase family member 1 (Homo sapiens, UniProt P22413).
T2 sequence (P22413 whole entry): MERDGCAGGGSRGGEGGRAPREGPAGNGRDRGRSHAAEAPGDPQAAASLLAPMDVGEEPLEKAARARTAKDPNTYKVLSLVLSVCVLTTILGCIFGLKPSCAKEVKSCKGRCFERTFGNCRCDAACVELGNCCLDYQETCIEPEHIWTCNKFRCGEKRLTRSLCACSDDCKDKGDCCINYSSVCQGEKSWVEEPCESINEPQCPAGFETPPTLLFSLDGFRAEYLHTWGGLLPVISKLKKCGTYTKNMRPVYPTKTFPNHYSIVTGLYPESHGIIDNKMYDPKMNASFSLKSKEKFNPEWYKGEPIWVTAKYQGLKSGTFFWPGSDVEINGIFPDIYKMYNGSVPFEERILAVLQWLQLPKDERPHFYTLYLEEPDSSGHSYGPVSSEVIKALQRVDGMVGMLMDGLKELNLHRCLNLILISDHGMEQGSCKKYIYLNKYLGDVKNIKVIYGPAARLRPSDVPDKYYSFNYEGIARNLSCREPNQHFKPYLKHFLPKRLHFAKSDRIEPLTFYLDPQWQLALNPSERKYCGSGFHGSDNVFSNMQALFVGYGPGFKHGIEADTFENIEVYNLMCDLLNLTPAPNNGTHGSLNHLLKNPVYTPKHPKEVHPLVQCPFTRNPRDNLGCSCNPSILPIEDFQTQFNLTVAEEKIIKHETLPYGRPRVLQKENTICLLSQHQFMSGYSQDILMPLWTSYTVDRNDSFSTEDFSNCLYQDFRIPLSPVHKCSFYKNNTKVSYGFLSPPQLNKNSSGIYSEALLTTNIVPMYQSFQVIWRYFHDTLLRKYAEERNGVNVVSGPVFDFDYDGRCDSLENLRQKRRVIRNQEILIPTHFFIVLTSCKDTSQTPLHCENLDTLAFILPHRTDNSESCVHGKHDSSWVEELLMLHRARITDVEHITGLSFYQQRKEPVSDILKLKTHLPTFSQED
Briefly: Stability of compound assessed as ENPP1 (unknown origin) mediated compound degradation at 300 uM measured upto 24 hrs by HPLC analysis. The format is ADME.

Data set [7] deals with T1, Stimulator of interferon genes protein.
Description: Binding affinity to wildtype human STING expressed in Escherichia coli BL21 (DE3) assessed as thermal stability by measuring increase in melting temperature by differential scanning fluorimetry analysis
Data set [8] in a line: Stability of compound assessed as Poxin (unknown origin) mediated compound degradation at 300 uM and measured after 3 hrs by HPLC analysis. Format: ADME.
A short description of data set [9]: Stability of compound assessed as Poxin (unknown origin) mediated compound degradation at 300 uM and measured after 24 hrs by HPLC analysis. Format: ADME.

T1 sequence (Q86WV6 whole entry): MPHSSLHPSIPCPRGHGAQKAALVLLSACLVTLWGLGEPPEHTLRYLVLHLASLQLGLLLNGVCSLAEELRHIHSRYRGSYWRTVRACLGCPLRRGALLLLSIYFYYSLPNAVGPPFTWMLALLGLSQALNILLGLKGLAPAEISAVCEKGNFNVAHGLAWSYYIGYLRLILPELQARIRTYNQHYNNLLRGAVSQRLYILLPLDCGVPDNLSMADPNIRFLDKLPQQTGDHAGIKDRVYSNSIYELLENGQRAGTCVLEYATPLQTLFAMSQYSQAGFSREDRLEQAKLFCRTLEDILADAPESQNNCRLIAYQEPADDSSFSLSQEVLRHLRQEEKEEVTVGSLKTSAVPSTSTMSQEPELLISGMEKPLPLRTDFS

`Nc1nc2c(ncn2[C@@H]2O[C@@H]3COP(=O)(O)O[C@H]4C[C@H](n5cnc6c(N)ncnc65)O[C@@H]4CSP(=O)(O)O[C@@H]2[C@@H]3O)c(=O)[nH]1`: the EC50 in data set [1] stood at 16.4 µM; in [3], 37 µM. In addition, in data set [2], the IC50 was determined as 7.87 µM.

Take `Nc1nc2c(ncn2[C@@H]2O[C@@H]3COP(=O)(O)O[C@H]4[C@@H](O)[C@H](n5cnc6c(N)ncnc65)O[C@@H]4COP(=O)(O)O[C@@H]2[C@@H]3O)c(=O)[nH]1`: the Stability entry in data set [4] is given as “Stable”; in data set [5] it was “Unstable”; in [6] it was “Unstable”.

As to `CCN(CC)CC.CCN(CC)CC.Nc1nc2c(ncn2[C@@H]2O[C@@H]3COP(=O)(O)O[C@H]4[C@@H](O)[C@H](n5cnc6c(N)ncnc65)O[C@@H]4CSP(=O)(O)O[C@@H]2[C@@H]3O)c(=O)[nH]1`, the ΔTm in data set [7] was 8.2 °C. Moreover, the Stability entry in data set [8] was “Unstable”; in [4] it was “Stable”; in data set [6], “Stable”. Further, the results for the EC50 in data set [1] and in data set [3] were 27.4 µM and 27.2 µM, respectively. This molecule also had an IC50 in data set [2] of 18.6 µM.

In the case of `CCN(CC)CC.CCN(CC)CC.Nc1nc2c(ncn2[C@@H]2O[C@@H]3COP(=O)(O)O[C@H]4[C@@H](F)[C@H](n5cnc6c(N)ncnc65)O[C@@H]4CSP(=O)(O)O[C@@H]2[C@@H]3O)c(=O)[nH]1`, the Stability entry in data set [4], in data set [9] and in data set [6] was “Stable” in each case.

The EC50 is the concentration needed to bring the measured effect to its halfway point. The term IC50 denotes the midpoint of a concentration-inhibition curve. High values mean lower potency, low ones higher potency. The term ΔTm denotes the change in melting temperature against a reference sample.
